Data set [1] relates to caspase 3, caspase 9 and PARP in ARP1, MM.1S and MM.1R. As to the kind of experiment: Western blotting, caspases activation. It counts as cell-based, human. To be noted: 10 μM. As for the experimental part: (§1) MM cell lines ARP1, ARK, MM.1S, MM.1R and U266 were maintained in RPMI-1640 medium supplemented with 10% fetal bovine serum, 100 U/ml penicillin and 100 μg/ml streptomycin at 37° C. and 5% CO2 Primary MM cells and MM BMSCs were isolated from bone marrow aspirates of myeloma patients. PBMCs were obtained from healthy volunteers. The study was approved by the Institutional Review Board at The University of Texas M.D. Anderson Cancer Center. Anti-caspase-3, caspase-9, PARP, Bim, XIAP, cyclin D1, pp 70S6K (Thr389) and p27(Kip1) antibodies were purchased from Cell Signaling. Anti-bcl-2, Bc1-XL, Akt, pAkt (Thr 308), pAkt (Ser 473), p70S6K and β-actin antibodies were purchased from Santa Cruz. Compound A was dissolved in DMSO at 10 mM as stock solution. Dexamethasone and Propidium iodide (PI) were purchased from Sigma-Aldrich. Recombinant human IL6 was purchased from R&D Systems. FITC conjugated Annexin V was obtained from Invitrogen.
To elucidate compound A induced MM cell apoptosis, MM cell lines ARP1, MM.1S and MM.1R, treated with or without compound A for 24 hours, were assessed by Western blotting analysis.
(A). […] Compound A induced activation and cleavage of caspase-3, caspase-9 and PARP is shown. (B). Same MM cells treated with 10 μM compound A were lysed for western blotting. (C) RP1 cells were treated with 10 μM compound A for 1, 6, 12 and 24 hours.
Background: Immunoblotting shows a protein as a band on a membrane.

For the next data set, the system named is ARP1. As to the kind of experiment: MTS cell growth assay. The data set is classed as cell-based. Particulars: Homo sapiens, ARP-1, ARP1, 24 hours treatment, read-out: IC50 (concentration at 50% inhibition), cell growth. As for the experimental part:
as §1
(§2) All experiments were performed in triplicate.
A general note: Formazan colour is commonly taken as a measure of viable cells.

A further data set relates to MM.1R. As to the kind of experiment: MTS cell growth assay. The data set is classed as cell-based. Particulars: Homo sapiens, 24 hours treatment, read-out: IC50 (concentration at 50% inhibition), cell growth. As for the experimental part: as §1, §2
For data set [2], the system named is MM cells ARP1, MM.1S and MM.1R. As to the kind of experiment: Low-dose single agents, apoptosis. It counts as cell-based, human. Particulars: 1 μM compound A alone, 1 day.
Protocol: Compound A-induced cell apoptosis was detected by Annexin V binding assay as previously described (Zheng Y, Cai Z, Wang S, et al. Macrophages are an abundant component of myeloma microenvironment and protect myeloma cells from chemotherapy drug-induced apoptosis. Blood. 2009; 114 (17):3625-3628). Briefly, MM cells were cultured in 24-well plates and treated with 0 to 1 mM final concentrations of compound A for 24 or 72 hours. The cells were washed twice with cold PBS and resuspended in Annexin V binding buffer (Invitrogen). MM cells were stained with FITC-conjugated Annexin V and propidium iodide (PI) for 15 min at room temperature. Apoptotic cells were determined as Annexin V positive cells.
Next, the experiment was extended to other MM cell lines, and they were treated with low compound A (1 μM) and dexamethasone (40 μg/ml).
ARP1 cells were treated with 10 μM compound A (BK), 15 nM melphalan (Me), 40 μg/ml dexamethasone (De), 100 μM lenalidomide (Le), 10 μM Bortizomib (BT), or their combinations for 1 day. The cell apoptosis were measured as described. […] Cell apoptosis was measured. […] Same MM cell lines were treated with compound A for 1 day and cell growth were measured by MTS. […] Cell apoptosis were measured by annexin V staining. […] Cells apoptosis rates were measured by annxin V staining. […]
Setting [3] is: 24 hours, ARP1, MM.1S and MM.1R.

As to `Nc1cc(C(F)(F)F)c(-c2cc(N3CCOCC3)nc(N3CCOCC3)n2)cn1` [compound A, 5-(2,6-di-morpholin-4-yl-pyrimidin-4-yl)-4-trifluoromethyl-pyridin-2-ylamine], the “caspase 3 cleavage” value in data set [1] (setting [3]) was “cleavage”. Moreover, the “caspase 9 cleavage” value in data set [1] (setting [3]) is on record as “cleavage”. In data set [1] (all tested cell lines), the PARP cleavage entry was “detected”. The IC50 in the data set with ARP1 and with MM.1R was 1 to 10 µM each time. Moreover, the “cytotoxic effect of low dose alone” value in data set [2] was “only limited cytotoxic effect”.
